The record followed here is patent US20240124417A1, “COMPOUNDS USEFUL AS IMMUNOMODULATORS” (Bristol-Myers Squibb Company, priority 2019, published 2024).

The assay has as its target T1, PD-1/PD-L1 (Homo sapiens, UniProt Q9NZQ7).
T1 construct: TVMV protease site linker (C); made in house; host or cells: HEK293T cells
Description: PD-1/PD-L1 Homogenous Time-Resolved Fluorescence (HTRF) binding assay. The note with it: PD-L1-His 10 nM, PD-1-Ig 20 nM. An excerpt: The ability of the compounds of the invention to bind to PD-L1 was investigated using a PD-1/PD-L1 Homogenous Time-Resolved Fluorescence (HTRF) binding assay.
Homogenous Time-Resolved Fluorescence (HTRF) binding assay.
The interaction of PD-1 and PD-L1 can be assessed using soluble, purified preparations of the extracellular domains of the two proteins. The PD-1 and PD-L1 protein extracellular domains were expressed as fusion proteins with detection tags, for PD-1, the tag was the Fc portion of Immunoglobulin (PD-1-Ig) and for PD-L1 it was the 6 histidine motif (PD-L1-His). All binding studies were performed in an HTRF assay buffer consisting of dPBS supplemented with 0.1% […] bovine serum albumin and 0.05% (v/v) Tween-20. For the h/PD-L1-His binding assay, inhibitors were pre-incubated with PD-L1-His (10 nM final) for 15 m in 4 μl of assay buffer, followed by addition of PD-1-Ig (20 nM final) in 1 μl of assay buffer and further incubation for 15 m. HTRF detection was achieved using europium crypate-labeled anti-Ig (1 nM final) and allophycocyanin (APC) labeled anti-His (20 nM final). Antibodies were diluted in HTRF detection buffer and 5 μl was dispensed on top of the binding reaction. […] Additional binding assays were established between the human proteins PD-1-Ig/PD-L2-His (20 & 5 nM, respectively) and CD80-His/PD-L1-Ig (100 & 10 nM, respectively). […]

T1 sequence (Q9NZQ7 18-239): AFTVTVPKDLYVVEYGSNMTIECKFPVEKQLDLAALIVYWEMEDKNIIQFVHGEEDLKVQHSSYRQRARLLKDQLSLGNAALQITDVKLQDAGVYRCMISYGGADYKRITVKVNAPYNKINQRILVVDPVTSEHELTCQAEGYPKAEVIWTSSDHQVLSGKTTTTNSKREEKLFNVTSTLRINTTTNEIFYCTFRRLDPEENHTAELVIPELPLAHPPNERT

Broadly, the IC50 is the point on the concentration scale where inhibition reaches its midpoint. A lower IC50 goes with higher potency. `Cc1c(COc2cc(OCc3cncc(C#N)c3)c(CNc3nnn[nH]3)cc2Cl)cccc1-c1cccc(OCCCN2CC[C@@H](O)C2)c1C` [Example 1001, (R)-5-((2-(((1H-Tetrazol-5-yl)amino)methyl)-4-chloro-5-((3′-(3-(3-hydroxypyrrolidin-1-yl)propoxy)-2,2′-dimethyl-[1,1′-biphenyl]-3-yl)methoxy)phenoxy)methyl)nicotinonitrile] gave an IC50 of 4.9 nM.

As to `Cc1c(COc2cc(OCc3cncc(C#N)c3)c(CNCc3nnn[nH]3)cc2Cl)cccc1-c1cccc(OCCCN2CC[C@@H](O)C2)c1C` [Example 1002, (R)-5-((2-((((1H-Tetrazol-5-yl)methyl)amino)methyl)-4-chloro-5-((3′-(3-(3-hydroxy-pyrrolidin-1-yl)propoxy)-2,2′-dimethyl-[1,1′-biphenyl]-3-yl)methoxy)phenoxy)methyl)-nicotinonitrile], the IC50 amounted to 2.9 nM.

Turning to `Cc1c(COc2cc(OCc3cncc(C#N)c3)c(CN3CCCC(c4ncc[nH]4)C3)cc2Cl)cccc1-c1cccc(OCCCN2CC[C@@H](O)C2)c1C` (stereo partly drawn) [Example 1003, 5-((2-((3-(1H-Imidazol-2-yl)piperidin-1-yl)methyl)-4-chloro-5-((3′-(3-((R)-3-hydroxy-pyrrolidin-1-yl)propoxy)-2,2′-dimethyl-[1,1′-biphenyl]-3-yl)methoxy)phenoxy)methyl)-nicotinonitrile], the half-maximal inhibitory concentration (IC50) was 1.4 nM.

As for `Cc1c(COc2cc(OCc3cncc(C#N)c3)c(CN(C)CCc3nn[nH]n3)cc2Cl)cccc1-c1cccc(OCCCN2CC[C@@H](O)C2)c1C` [Example 1004, (R)-5-((2-(((2-(2H-Tetrazol-5-yl)ethyl)(methyl)amino)methyl)-4-chloro-5-((3′-(3-(3-hydroxypyrrolidin-1-yl)propoxy)-2,2′-dimethyl-[1,1′-biphenyl]-3-yl)methoxy)phenoxy)-methyl)nicotinonitrile], the IC50 amounted to 1.1 nM.

For `Cc1c(COc2cc(OCc3cncc(C#N)c3)c(CN(C)C(C)c3nnn[nH]3)cc2Cl)cccc1-c1cccc(OCCCN2CC[C@@H](O)C2)c1C` (stereo partly drawn) [Example 1005, 5-((2-(((1-(1H-Tetrazol-5-yl)ethyl)(methyl)amino)methyl)-4-chloro-5-((3′-(3-((R)-3-hydroxypyrrolidin-1-yl)propoxy)-2,2′-dimethyl-[1,1′-biphenyl]-3-yl)methoxy)phenoxy)methyl)nicotinonitrile], the concentration for half-maximal inhibition (IC50) was 2.3 nM.

For the compound `Cc1c(COc2cc(OCc3cncc(C#N)c3)c(CN(C)CC(C)c3nnn[nH]3)cc2Cl)cccc1-c1cccc(OCCCN2CC[C@@H](O)C2)c1C` (stereo partly drawn) [Example 1006, 5-((2-(((2-(1H-Tetrazol-5-yl)propyl)(methyl)amino)methyl)-4-chloro-5-((3′-(3-((R)-3-hydroxypyrrolidin-1-yl)propoxy)-2,2′-dimethyl-[1,1′-biphenyl]-3-yl)methoxy)phenoxy)methyl)nicotinonitrile], the half-inhibitory concentration (IC50) came out at 2.7 nM.

As for `CCN(Cc1nnn[nH]1)Cc1cc(Cl)c(OCc2cccc(-c3cccc(OCCCN4CC[C@@H](O)C4)c3C)c2C)cc1OCc1cncc(C#N)c1` [Example 1007, (R)-5-((2-((((1H-Tetrazol-5-yl)methyl)(ethyl)amino)methyl)-4-chloro-5-((3′-(3-(3-hydroxypyrrolidin-1-yl)propoxy)-2,2′-dimethyl-[1,1′-biphenyl]-3-yl)methoxy)phenoxy)methyl)nicotinonitrile], the 50% inhibitory concentration (IC50) came out at 3 nM.

`Cc1c(COc2cc(OCc3cncc(C#N)c3)c(CN3CCCC(c4nnc[nH]4)C3)cc2Cl)cccc1-c1cccc(OCCCN2CC[C@@H](O)C2)c1C` (stereo partly drawn) [Example 1008, 5-((2-((3-(4H-1,2,4-Triazol-3-yl)piperidin-1-yl)methyl)-4-chloro-5-((3′-(3-((R)-3-hydroxypyrrolidin-1-yl)propoxy)-2,2′-dimethyl-[1,1′-biphenyl]-3-yl)methoxy)phenoxy)-methyl)nicotinonitrile] gave a concentration for half-maximal inhibition (IC50) of 4.2 nM.

Compound `Cc1c(COc2cc(OCc3cncc(C#N)c3)c(CN3CCCCC3c3ncc[nH]3)cc2Cl)cccc1-c1cccc(OCCCN2CC[C@@H](O)C2)c1C` (stereo partly drawn) [Example 1009, 5-((2-((2-(1H-Imidazol-2-yl)piperidin-1-yl)methyl)-4-chloro-5-((3′-(3-((R)-3-hydroxy-pyrrolidin-1-yl)propoxy)-2,2′-dimethyl-[1,1′-biphenyl]-3-yl)methoxy)phenoxy)methyl)-nicotinonitrile] had a half-maximal inhibitory concentration (IC50) of 0.5 nM.

As to `Cc1c(COc2cc(OCc3cncc(C#N)c3)c(CN3CCCCC3c3nc(=O)[nH][nH]3)cc2Cl)cccc1-c1cccc(OCCCN2CC[C@@H](O)C2)c1C` (stereo partly drawn) [Example 1010, 5-((4-Chloro-5-((3′-(3-((R)-3-hydroxypyrrolidin-1-yl)propoxy)-2,2′-dimethyl-[1,1′-biphenyl]-3-yl)methoxy)-2-((2-(5-oxo-2,5-dihydro-1H-1,2,4-triazol-3-yl)piperidin-1-yl)-methyl)phenoxy)methyl)nicotinonitrile], the half-inhibitory concentration (IC50) worked out at 5.3 nM.

For `Cc1c(COc2cc(OCc3cncc(C#N)c3)c(CN3CCCCC3c3cn[nH]c3)cc2Cl)cccc1-c1cccc(OCCCN2CC[C@@H](O)C2)c1C` (stereo partly drawn) [Example 1011, 5-((2-((2-(1H-Pyrazol-4-yl)piperidin-1-yl)methyl)-4-chloro-5-((3′-(3-((R)-3-hydroxy-pyrrolidin-1-yl)propoxy)-2,2′-dimethyl-[1,1′-biphenyl]-3-yl)methoxy)phenoxy)methyl)-nicotinonitrile], the IC50 was determined as 17.5 nM.

The compound `Cc1c(COc2cc(OCc3cncc(C#N)c3)c(CN3CCCCC3c3nnn[nH]3)cc2Cl)cccc1-c1cccc(OCCCN2CC[C@@H](O)C2)c1C` (stereo partly drawn) [Example 1012, 5-((2-((2-(1H-Tetrazol-5-yl)piperidin-1-yl)methyl)-4-chloro-5-((3′-(3-((R)-3-hydroxy-pyrrolidin-1-yl)propoxy)-2,2′-dimethyl-[1,1′-biphenyl]-3-yl)methoxy)phenoxy)methyl)-nicotinonitrile] yielded a concentration for half-maximal inhibition (IC50) of 0.7 nM.

Compound `Cc1c(COc2cc(OCc3cncc(C#N)c3)c(CNCC(C)c3nnn[nH]3)cc2Cl)cccc1-c1cccc(OCCCN2CC[C@@H](O)C2)c1C` (stereo partly drawn) [Example 1013, 5-((2-(((2-(1H-Tetrazol-5-yl)propyl)amino)methyl)-4-chloro-5-((3′-(3-((R)-3-hydroxy-pyrrolidin-1-yl)propoxy)-2,2′-dimethyl-[1,1′-biphenyl]-3-yl)methoxy)phenoxy)methyl)-nicotinonitrile] showed a concentration for half-maximal inhibition (IC50) of 3.2 nM.

Compound `Cc1c(COc2cc(OCc3cncc(C#N)c3)c(CNCCc3nnnn3C)cc2Cl)cccc1-c1cccc(OCCCN2CC[C@@H](O)C2)c1C` [Example 1014, (R)-5-((4-Chloro-5-((3′-(3-(3-hydroxypyrrolidin-1-yl)propoxy)-2,2′-dimethyl-[1,1′-biphenyl]-3-yl)methoxy)-2-(((2-(1-methyl-1H-tetrazol-5-yl)ethyl)amino)methyl)-phenoxy)methyl)nicotinonitrile] registered a half-maximal inhibitory concentration (IC50) of 2.9 nM.

Take `Cc1c(COc2cc(OCc3cncc(C#N)c3)c(CN3CCCC3c3nnn[nH]3)cc2Cl)cccc1-c1cccc(OCCCN2CC[C@@H](O)C2)c1C` (stereo partly drawn) [Example 1015, 5-((2-((2-(1H-Tetrazol-5-yl)pyrrolidin-1-yl)methyl)-4-chloro-5-((3′-(3-((R)-3-hydroxy-pyrrolidin-1-yl)propoxy)-2,2′-dimethyl-[1,1′-biphenyl]-3-yl)methoxy)phenoxy)methyl)-nicotinonitrile]: the IC50 stood at 2.9 nM.

In turn, `Cc1c(COc2cc(OCc3cncc(C#N)c3)c(CN(C)Cc3nnn[nH]3)cc2Cl)cccc1-c1cccc(OCCCN2CC[C@@H](O)C2)c1C` [Example 1016, (R)-5-((2-((((1H-Tetrazol-5-yl)methyl)(methyl)amino)methyl)-4-chloro-5-((3′-(3-(3-hydroxypyrrolidin-1-yl)propoxy)-2,2′-dimethyl-[1,1′-biphenyl]-3-yl)methoxy)phenoxy)-methyl)nicotinonitrile] gave a concentration for half-maximal inhibition (IC50) of 1.9 nM.

`Cc1c(COc2cc(OCc3cncc(C#N)c3)c(CN3CCC(c4nnn[nH]4)C3)cc2Cl)cccc1-c1cccc(OCCCN2CC[C@@H](O)C2)c1C` (stereo partly drawn) [Example 1017, 5-((2-((3-(1H-Tetrazol-5-yl)pyrrolidin-1-yl)methyl)-4-chloro-5-((3′-(3-((R)-3-hydroxy-pyrrolidin-1-yl)propoxy)-2,2′-dimethyl-[1,1′-biphenyl]-3-yl)methoxy)phenoxy)methyl)-nicotinonitrile] showed a concentration for half-maximal inhibition (IC50) of 1.9 nM.

`Cc1c(COc2cc(OCc3cncc(C#N)c3)c(CN3CCCC(c4nnn[nH]4)C3)cc2Cl)cccc1-c1cccc(OCCCN2CC[C@@H](O)C2)c1C` (stereo partly drawn) [Example 1018, 5-((2-((3-(1H-Tetrazol-5-yl)piperidin-1-yl)methyl)-4-chloro-5-((3′-(3-((R)-3-hydroxy-pyrrolidin-1-yl)propoxy)-2,2′-dimethyl-[1,1′-biphenyl]-3-yl)methoxy)phenoxy)methyl)-nicotinonitrile] had an IC50 of 0.5 nM.

`Cc1c(COc2cc(OCc3cncc(C#N)c3)c(CN3CCCCC3c3cn[nH]c3)cc2Cl)cccc1-c1cccc(OCC2CCCN(C)C2)c1Cl` (stereo not shown) [Example 1020, 5-((2-((2-(1H-Pyrazol-4-yl)piperidin-1-yl)methyl)-4-chloro-5-((2′-chloro-2-methyl-3′-((1-methylpiperidin-3-yl)methoxy)-[1,1′-biphenyl]-3-yl)methoxy)phenoxy)methyl)-nicotinonitrile] yielded an IC50 of 2.8 nM.
